In patent publication US20230088214A1, “GLYCOLATE OXIDASE INHIBITORS FOR THE TREATMENT OF DISEASE” (BIOMARIN PHARMACEUTICAL INC., priority 2019, published 2023):

target: T1, GO (Homo sapiens, UniProt Q9UJM8); assay: GO Enzymatic Assay (Assay 1); format: biochemical; parameters: purchased Novus Biologicals NBP1-72412; conditions: Table 4; class symbols without asterisk, GO Enzymatic Assay (Assay 1); read-out: Range
T1 sequence (Q9UJM8 1-370): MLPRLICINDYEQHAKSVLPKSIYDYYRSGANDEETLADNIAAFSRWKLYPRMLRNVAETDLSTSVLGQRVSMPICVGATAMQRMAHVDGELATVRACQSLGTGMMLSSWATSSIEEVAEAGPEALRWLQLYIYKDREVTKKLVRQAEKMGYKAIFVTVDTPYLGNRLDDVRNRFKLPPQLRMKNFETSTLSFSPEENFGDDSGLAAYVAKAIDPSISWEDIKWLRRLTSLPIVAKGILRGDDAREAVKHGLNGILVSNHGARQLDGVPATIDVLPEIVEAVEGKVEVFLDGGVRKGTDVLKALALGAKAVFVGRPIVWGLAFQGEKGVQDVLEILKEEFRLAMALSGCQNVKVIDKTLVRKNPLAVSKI
Description: Assay 1: GO Enzymatic Assay
GO was incubated with its substrate, glycolate, in 50 mM potassium phosphate buffer, pH 7. […] The enzyme was optimized and the kinetics was determined.
Compound inhibition was determined by adding various concentrations of inhibitors in the GO enzyme assay. The IC50 value for each measured compound was generated from sigmoidal dose-response (variable slope) curves with GraphPad Prism software (GraphPad Software, Inc., San Diego, Calif.) using the percent inhibition of GO activity relative to DMSO control.

Row | SMILES | IC50
1 | O=C(O)c1[nH]nnc1O[C@H]1CC[C@H](c2ccc(N3CCCC3=O)cc2)CC1 [Compound 412, 4-(((trans)-4-(4-(2-oxopyrrolidin-1-yl)phenyl)cyclohexyl)oxy)-1H-1,2,3-triazole-5-carboxylic acid] | < 100 nM
2 | CN(C)C(=O)c1ccc([C@H]2CC[C@H](Oc3nn[nH]c3C(=O)O)CC2)cc1 [Compound 414, 4-(((trans)-4-(4-(dimethylcarbamoyl)phenyl)cyclohexyl)oxy)-1H-1,2,3-triazole-5-carboxylic acid 2,2,2-trifluoroacetate] | < 100 nM
3 | O=C(O)c1[nH]nnc1O[C@H]1CC[C@H](c2ccc(C(=O)N3CCOCC3)cc2)CC1 [Compound 416, 4-(((trans)-4-(4-(morpholine-4-carbonyl)phenyl)cyclohexyl)oxy)-1H-1,2,3-triazole-5-carboxylic acid 2,2,2-trifluoroacetate] | < 100 nM
4 | O=C(O)c1[nH]nnc1O[C@H]1CC[C@H](c2ccc(C(=O)N3CCCCC3)cc2)CC1 [Compound 417, 4-(((trans)-4-(4-(piperidine-1-carbonyl)phenyl)cyclohexyl)oxy)-1H-1,2,3-triazole-5-carboxylic acid 2,2,2-trifluoroacetate] | < 100 nM
5 | O=C(O)c1[nH]nnc1O[C@H]1CC[C@H](c2ccc(-n3cccn3)cc2)CC1 [Compound 418, 4-(((trans)-4-(4-(1H-pyrazol-1-yl)phenyl)cyclohexyl)oxy)-1H-1,2,3-triazole-5-carboxylic acid] | < 100 nM
6 | O=C(O)c1[nH]nnc1O[C@H]1CC[C@H](c2ccc(OC(F)(F)F)c(Cl)c2)CC1 [Compound 419, 4-(((trans)-4-(3-chloro-4-(trifluoromethoxy)phenyl)cyclohexyl)oxy)-1H-1,2,3-triazole-5-carboxylic acid] | < 100 nM
7 | N#Cc1ccc([C@H]2C[C@H](Sc3nn[nH]c3C(=O)O)C2)cc1 [Compound 420, 4-(((trans)-3-(4-cyanophenyl)cyclobutyl)thio)-1H-1,2,3-triazole-5-carboxylic acid 2,2,2-trifluoroacetate] | < 100 nM
8 | O=C(O)c1[nH]nnc1S[C@H]1CC[C@H](c2ccc(OC(F)(F)F)cc2)CC1 [Compound 422, 4-(((trans)-4-(4-(trifluoromethoxy)phenyl)cyclohexyl)thio)-1H-1,2,3-triazole-5-carboxylic acid] | < 100 nM
9 | N#Cc1ccc(COc2cc(Oc3nn[nH]c3C(=O)O)ccc2Cl)cc1 [Compound 423, 4-(4-chloro-3-((4-cyanobenzyl)oxy)phenoxy)-1H-1,2,3-triazole-5-carboxylic acid] | < 100 nM
10 | O=C(O)c1[nH]nnc1O[C@H]1CC[C@H](c2ccc(F)cc2F)CC1 [Compound 424, 4-(((trans)-4-(2,4-difluorophenyl)cyclohexyl)oxy)-1H-1,2,3-triazole-5-carboxylic acid 2,2,2-trifluoroacetate] | < 100 nM
11 | O=C(O)c1[nH]nnc1O[C@H]1CC[C@H](c2ccc(-c3nnc[nH]3)cc2)CC1 [Compound 425, 4-(((trans)-4-(4-(4H-1,2,4-triazol-3-yl)phenyl)cyclohexyl)oxy)-1H-1,2,3-triazole-5-carboxylic acid] | < 100 nM
12 | O=C(O)c1[nH]nnc1O[C@H]1C[C@H](c2ccc(N3CCCCC3)cc2)C1 [Compound 426, 4-((trans)-3-(4-(piperidin-1-yl)phenyl)cyclobutoxy)-1H-1,2,3-triazole-5-carboxylic acid 2,2,2-trifluoroacetate] | < 100 nM
13 | O=C(O)c1[nH]nnc1S[C@H]1CC[C@H](c2cc(Cl)ccc2OC(F)(F)F)CC1 [Compound 430, 4-(((trans)-4-(5-chloro-2-(trifluoromethoxy)phenyl)cyclohexyl)thio)-1H-1,2,3-triazole-5-carboxylic acid] | < 100 nM
14 | O=C(O)c1[nH]nnc1O[C@H]1CC[C@H](c2ccc(-c3nncs3)cc2)CC1 [Compound 431, 4-(((trans)-4-(4-(1,3,4-thiadiazol-2-yl)phenyl)cyclohexyl)oxy)-1H-1,2,3-triazole-5-carboxylic acid 2,2,2-trifluoroacetate] | < 100 nM
15 | O=C(O)c1[nH]nnc1S[C@H]1CC[C@H](c2ccc(N3CCCCC3)cc2)CC1 [Compound 432, 4-(((trans)-4-(4-(piperidin-1-yl)phenyl)cyclohexyl)thio)-1H-1,2,3-triazole-5-carboxylic acid 2,2,2-trifluoroacetate] | < 100 nM
16 | O=C(O)c1[nH]nnc1O[C@H]1CC[C@H](c2ccc(-c3nnco3)cc2)CC1 [Compound 433, 4-(((trans)-4-(4-(1,3,4-oxadiazol-2-yl)phenyl)cyclohexyl)oxy)-1H-1,2,3-triazole-5-carboxylic acid] | < 100 nM
17 | O=C(O)c1[nH]nnc1S[C@H]1C[C@H](c2ccc(N3CCCCC3)cc2)C1 [Compound 434, 4-(((trans)-3-(4-(piperidin-1-yl)phenyl)cyclobutyl)thio)-1H-1,2,3-triazole-5-carboxylic acid 2,2,2-trifluoroacetate] | < 100 nM
18 | O=C(O)c1[nH]nnc1O[C@H]1CC[C@H](c2ccc(N3CCCCC3)cc2)CC1 [Compound 436, 4-(((trans)-4-(4-(piperidin-1-yl)phenyl)cyclohexyl)oxy)-1H-1,2,3-triazole-5-carboxylic acid 2,2,2-trifluoroacetate] | < 100 nM
19 | CS(=O)(=O)c1ccc([C@H]2CC[C@H](Oc3nn[nH]c3C(=O)O)CC2)cc1 [Compound 438, 4-(((trans)-4-(4-(methylsulfonyl)phenyl)cyclohexyl)oxy)-1H-1,2,3-triazole-5-carboxylic acid] | < 100 nM
20 | CS(=O)(=O)c1ccc([C@H]2CC[C@H](Sc3nn[nH]c3C(=O)O)CC2)cc1 [Compound 439, 4-(((trans)-4-(4-(methylsulfonyl)phenyl)cyclohexyl)thio)-1H-1,2,3-triazole-5-carboxylic acid 2,2,2-trifluoroacetate] | < 100 nM
21 | O=C(O)c1[nH]nnc1O[C@H]1CC[C@H](c2ccc(N3CCCCC3)c(Cl)c2)CC1 [Compound 441, 4-(((trans)-4-(3-chloro-4-(piperidin-1-yl)phenyl)cyclohexyl)oxy)-1H-1,2,3-triazole-5-carboxylic acid 2,2,2-trifluoroacetate] | < 100 nM
22 | O=C(O)c1[nH]nnc1Oc1ccc(Cl)c(OC2CC2)c1 [Compound 445, 4-(4-chloro-3-cyclopropoxyphenoxy)-1H-1,2,3-triazole-5-carboxylic acid] | < 100 nM
23 | O=C(O)c1[nH]nnc1COC1CCN(c2cc(Cl)cc(Cl)c2)CC1 [Example 477, 4-(((1-(3,5-dichlorophenyl)piperidin-4-yl)oxy)methyl)-1H-1,2,3-triazole-5-carboxylic acid] | < 100 nM
24 | O=C(O)c1[nH]nnc1COC1CCN(c2cc(Cl)ccc2Cl)CC1 [Example 481, 4-(((1-(2,5-dichlorophenyl)piperidin-4-yl)oxy)methyl)-1H-1,2,3-triazole-5-carboxylic acid] | 100 to 1000 nM

target: T1, GO; assay: GO Cellular Assay: CHO-Agt Cells Assay (Assay 3); format: cell-based, Chinese hamster; parameters: host or cells: CHO cells (A.T.C.C. CCl-61) and engineered CHO-Agt cells (from Fargue/Danpure); conditions: 100 uM glycolic acid, glyoxylate by LC-MS at 2 hours, read-out: Range of IC50 values calculated from the cellular assays (Assay 3)
Description: Assay 3: GO Cellular Assay: CHO-Agt Cells Assay
CHO cells (A.T.C.C. number CCl-61) and engineered CHO-Agt cells (provided by Dr. Sonia Fargue and Dr. Christopher J. Danpure, Biochem. J. (2006) 394, 409-416) were used as a screening cellular assay for primary compounds. The cells were seeded in 20,000 cell/well in 96 well plate and cultured at 37-C under O2/CO2 (19:1) in Ham's F12 medium (Invitrogen) supplemented with fetal calf serum (10%, v/v), L-glutamine (2 mM), penicillin (100 units/ml) and streptomycin (100 pug/ml). After overnight culture, the cells were treated with various concentrations of inhibitors in the presence of 100 uM glycolic acid in HEPES buffer, pH7.0 (Sigma-Aldrich, Cat #124737). Culture medium was harvested at 2 hours after treatment for glyoxylate analysis and cell viability was measured by Cell Titer-Glo (Fisher Scientific, Cat #. PR-G7570).
The glyoxylate was quantified using LC-MS method. An aliquot of 120 μL medium was removed from each well and protein precipitated by adding 240 μL IS (100 ng/ml 13C2-glyoxylic acid, Sigma-Aldrich, Cat #G755002). The mixture was vortex-mixed well and centrifuged at 3900 rpm for 15 min, 4° C. 100 μL supernatant was then mixed with 10 μL formic acid and 100 μL 400 μM DNPH (2,4-dinitrophenylhydrazine) (Shanghai Runjie Huaxue Shiji Ltd., Cat #A0000436) and the mixture was shaken for 30 minutes. A 3 μL mixture of reaction mixture was injected for LC-MS/MS analysis. (Behnam J T, Williams E L, Brink S, Rumsby G, Danpure C J., “Reconstruction of human hepatocyte glyoxylate metabolic pathways in stably transformed Chinese-hamster ovary cells”, Biochem J. 2006 Mar. 1; 394 (Pt 2):409-16.)

Row | SMILES | IC50
25 | CCOC(=O)c1[nH]nnc1Sc1nc(-c2ccc(Cl)c(Cl)c2)cs1 [Compound 1, ethyl 4-((4-(3,4-dichlorophenyl)thiazol-2-yl)thio)-1H-1,2,3-triazole-5-carboxylate] | > 10000 nM
26 | O=C(OC1CC1)c1[nH]nnc1Oc1ccc2cc(Br)ccc2c1 [Compound 110, cyclopropyl 4-((6-bromonaphthalen-2-yl)oxy)-1H-1,2,3-triazole-5-carboxylate] | 1000 to 5000 nM
27 | CC(C)OC(=O)OCOC(=O)c1[nH]nnc1O[C@H]1CC[C@H](c2ccc(OC(F)(F)F)cc2)CC1 [Compound 302, ((isopropoxycarbonyl)oxy)methyl 4-(((trans)-4-(4-(trifluoromethoxy)phenyl)cyclohexyl)oxy)-1H-1,2,3-triazole-5-carboxylate] | < 1000 nM
